Experiment [1] deals with T1, JH2 domain of human Tyk2 (Homo sapiens, UniProt P29597).
T1 construct: 10×His-tagged TYK2 JH2 domain (amino acid 575-876)
Nature of the experiment: JH2 biochemical assay (TR-FRET probe displacement). The class given is binding. Conditions: JH2 biochemical assay. The gist of the method:
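A probe-displacement TR-FRET readout: compounds, tested in 3-fold, 10-point dilutions starting at […], compete with 2 nM tracer for 2 nM His-tagged JH2 (residues 575-876) detected by 0.1 nM Tb-anti-His over 60 min. IC50 comes from 4-parameter fits of normalized 520/495 nm ratios.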

Experiment [2] has as its system Tyk2 kinase activity on STAT4. Nature of the experiment: pSTAT4 cell assay (MSD, NK92 cells). The class given is cell-based. Conditions: compounds 1 hr, stimulated 15 minutes. A digest of the protocol:
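Cells natively expressing STAT4 and Tyk2 (NK92) are serum-starved to lower background phosphorylation, exposed to compound for 1 hr over a 10-point four-fold series starting at 10 μM, and stimulated with 30 ng/mL IL2 for 15 minutes. Phosphorylation is quantified on MSD with anti-STAT4 antibodies.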

Where a name gives a salt, the structure may show the parent alone.

T1 sequence (P29597 575-876): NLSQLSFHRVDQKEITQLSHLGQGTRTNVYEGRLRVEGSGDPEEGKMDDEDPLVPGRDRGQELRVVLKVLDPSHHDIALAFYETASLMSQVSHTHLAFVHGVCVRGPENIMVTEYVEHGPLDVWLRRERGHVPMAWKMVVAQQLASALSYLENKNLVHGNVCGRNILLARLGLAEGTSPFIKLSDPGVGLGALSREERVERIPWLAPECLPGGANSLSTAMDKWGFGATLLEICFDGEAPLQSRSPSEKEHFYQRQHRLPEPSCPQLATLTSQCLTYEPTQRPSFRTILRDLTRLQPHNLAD

`COCCN1CCN(c2nc(C)cc(N3CC4(CC4)c4cnc(NC(C)=O)cc43)n2)CC1` [Example 233, N-(1′-(2-(4-(2-methoxyethyl)piperazin-1-yl)-6-methylpyrimidin-4-yl)-1′,2′-dihydrospiro[cyclopropane-1,3′-pyrrolo[3,2-c]pyridin]-6′-yl)acetamide trifluoroacetate]: the IC50 in experiment [1] and in experiment [2] was not below 1000 nM throughout.

Take `COC1(C)CN(c2nc(C)cc(N3CC4(CC4)c4cnc(NC(C)=O)cc43)n2)C1` [Example 234, N-(1′-(2-(3-methoxy-3-methylazetidin-1-yl)-6-methylpyrimidin-4-yl)-1′,2′-dihydrospiro[cyclopropane-1,3′-pyrrolo[3,2-c]pyridin]-6′-yl)acetamide]: the IC50 in experiment [1] was 10 to 100 nM; in experiment [2], 100 to 1000 nM.

On to `CC(=O)Nc1cc2c(cn1)C1(CC1)CN2c1cc(C)nc(N2CCC2C)n1` (stereo not shown) [Example 235, N-(1′-(6-methyl-2-(2-methylazetidin-1-yl)pyrimidin-4-yl)-1′,2′-dihydrospiro[cyclopropane-1,3′-pyrrolo[3,2-c]pyridin]-6′-yl)acetamide], for which the IC50 in experiment [1] was not above 10 nM; in experiment [2] it was 100 to 1000 nM.

Regarding `CC(=O)Nc1cc2c(cn1)C1(CC1)CN2c1cc(C)nc(N2CCC(C)(O)C2)n1` (stereo not shown) [Example 236, N-(1′-(2-(3-hydroxy-3-methylpyrrolidin-1-yl)-6-methylpyrimidin-4-yl)-1′,2′-dihydrospiro[cyclopropane-1,3′-pyrrolo[3,2-c]pyridin]-6′-yl)acetamide], the IC50 in experiment [1] was 10 to 100 nM; in experiment [2] it was not below 1000 nM.

With `CC(=O)Nc1cc2c(cn1)C1(CC1)CN2c1cc(C)nc(N2CC(O)C2)n1` [Example 237, N-(1′-(2-(3-hydroxyazetidin-1-yl)-6-methylpyrimidin-4-yl)-1′,2′-dihydrospiro[cyclopropane-1,3′-pyrrolo[3,2-c]pyridin]-6′-yl)acetamide], the figures for the IC50 in experiment [1] and in experiment [2] were 10 to 100 nM and not below 1000 nM, respectively.

Regarding `CC(=O)Nc1cc2c(cn1)C1(CC1)CN2c1cc(-c2cn(C)nc2C)nc(C(C)(F)F)n1` [Example 239, N-(1′-(2-(1,1-difluoroethyl)-6-(1,3-dimethyl-1H-pyrazol-4-yl)pyrimidin-4-yl)-1′,2′-dihydrospiro[cyclopropane-1,3′-pyrrolo[3,2-c]pyridin]-6′-yl)acetamide trifluoroacetate], the IC50 in experiment [1] is not above 10 nM; in experiment [2], 10 to 100 nM.

Take `CC(=O)Nc1cc2c(cn1)C1(CC1)CN2c1cc(-c2cnn(C)c2C)nc(C(C)(F)F)n1` [Example 240, N-(1′-(2-(1,1-difluoroethyl)-6-(1,5-dimethyl-1H-pyrazol-4-yl)pyrimidin-4-yl)-1′,2′-dihydrospiro[cyclopropane-1,3′-pyrrolo[3,2-c]pyridin]-6′-yl)acetamide trifluoroacetate]: the results for the IC50 in experiment [1] and in experiment [2] were not above 10 nM and 10 to 100 nM, respectively.

For `CC(=O)Nc1cc2c(cn1)C1(CC1)CN2c1cc(-c2ccn(C)n2)nc(C(C)(F)F)n1` [Example 241, N-(1′-(2-(1,1-difluoroethyl)-6-(1-methyl-1H-pyrazol-3-yl)pyrimidin-4-yl)-1′,2′-dihydrospiro[cyclopropane-1,3′-pyrrolo[3,2-c]pyridin]-6′-yl)acetamide], the IC50 was not above 10 nM in experiment [1] and 10 to 100 nM in experiment [2].

Regarding `CC(=O)Nc1cc2c(cn1)C1(CC1)CN2c1cc(-c2ccc(C)nc2)nc(C(C)(F)F)n1` [Example 242, N-(1′-(2-(1,1-difluoroethyl)-6-(6-methylpyridin-3-yl)pyrimidin-4-yl)-1′,2′-dihydrospiro[cyclopropane-1,3′-pyrrolo[3,2-c]pyridin]-6′-yl)acetamide], the figures for the IC50 in experiment [1] and in experiment [2] were not above 10 nM and 10 to 100 nM, respectively.

With `COc1ccc(-c2cc(N3CC4(CC4)c4cnc(NC(C)=O)cc43)nc(C(C)(F)F)n2)cn1` [Example 243, N-(1′-(2-(1,1-difluoroethyl)-6-(6-methoxypyridin-3-yl)pyrimidin-4-yl)-1′,2′-dihydrospiro[cyclopropane-1,3′-pyrrolo[3,2-c]pyridin]-6′-yl)acetamide trifluoroacetate], the IC50 in experiment [1] is not above 10 nM; in experiment [2], 10 to 100 nM.

On to `CC(=O)Nc1cc2c(cn1)C1(CC1)CN2c1cc(C)nc(-c2ccn(C)n2)n1` [Example 244, N-(1′-(6-methyl-2-(1-methyl-1H-pyrazol-3-yl)pyrimidin-4-yl)-1′,2′-dihydrospiro[cyclopropane-1,3′-pyrrolo[3,2-c]pyridin]-6′-yl)acetamide trifluoroacetate], for which the values for the IC50 in experiment [1] and in experiment [2] were 10 to 100 nM and not below 1000 nM, respectively.

For the compound `CC(=O)Nc1cc2c(cn1)C1(CC1)CN2c1cc(C)nc(-c2cnn(C)c2)n1` [Example 245, N-(1′-(6-methyl-2-(1-methyl-1H-pyrazol-4-yl)pyrimidin-4-yl)-1′,2′-dihydrospiro[cyclopropane-1,3′-pyrrolo[3,2-c]pyridin]-6′-yl)acetamide trifluoroacetate], the IC50 in experiment [1] fell in the range of 10 to 100 nM; in experiment [2], 100 to 1000 nM.

Consider `CCn1cc(-c2nc(C)cc(N3CC4(CC4)c4cnc(NC(C)=O)cc43)n2)cn1` [Example 247, N-(1′-(2-(1-ethyl-1H-pyrazol-4-yl)-6-methylpyrimidin-4-yl)-1′,2′-dihydrospiro[cyclopropane-1,3′-pyrrolo[3,2-c]pyridin]-6′-yl)acetamide], for which the IC50 in experiment [1] was not above 10 nM; in experiment [2] it was 100 to 1000 nM.

Regarding `CC(=O)Nc1cc2c(cn1)C1(CC1)CN2c1cc(C)nc(-c2cnn(C)c2C(F)F)n1` [Example 248, N-(1′-(2-(5-(difluoromethyl)-1-methyl-1H-pyrazol-4-yl)-6-methylpyrimidin-4-yl)-1′,2′-dihydrospiro[cyclopropane-1,3′-pyrrolo[3,2-c]pyridin]-6′-yl)acetamide], the IC50 in experiment [1] was 10 to 100 nM; in experiment [2] it was not below 1000 nM.

For the compound `CC(=O)Nc1cc2c(cn1)C1(CC1)CN2c1cc(C)nc(-c2cnn(C(C)C)c2)n1` [Example 249, N-(1′-(2-(1-isopropyl-1H-pyrazol-4-yl)-6-methylpyrimidin-4-yl)-1′,2′-dihydrospiro[cyclopropane-1,3′-pyrrolo[3,2-c]pyridin]-6′-yl)acetamide], the IC50 was 10 to 100 nM in experiment [1] and not below 1000 nM in experiment [2].

Regarding `CC(=O)Nc1cc2c(cn1)C1(CC1)CN2c1cc(C)nc(-c2cnn(C3CC3)c2)n1` [Example 250, N-(1′-(2-(1-cyclopropyl-1H-pyrazol-4-yl)-6-methylpyrimidin-4-yl)-1′,2′-dihydrospiro[cyclopropane-1,3′-pyrrolo[3,2-c]pyridin]-6′-yl)acetamide], the IC50 in experiment [1] was 10 to 100 nM; in experiment [2] it was not below 1000 nM.

For `CC(=O)Nc1cc2c(cn1)C1(CC1)CN2c1cc(C)nc(-c2cnn(C3COC3)c2)n1` [Example 251, N-(1′-(6-methyl-2-(1-(oxetan-3-yl)-1H-pyrazol-4-yl)pyrimidin-4-yl)-1′,2′-dihydrospiro[cyclopropane-1,3′-pyrrolo[3,2-c]pyridin]-6′-yl)acetamide trifluoroacetate], the IC50 in experiment [1] is 10 to 100 nM; in experiment [2] it was not below 1000 nM.

`CC(=O)Nc1cc2c(cn1)C1(CC1)CN2c1cc(C)nc(-c2cnn(CC3CC3)c2)n1` [Example 253, N-(1′-(2-(1-(cyclopropylmethyl)-1H-pyrazol-4-yl)-6-methylpyrimidin-4-yl)-1′,2′-dihydrospiro[cyclopropane-1,3′-pyrrolo[3,2-c]pyridin]-6′-yl)acetamide trifluoroacetate]: the IC50 in experiment [1] is 10 to 100 nM; in experiment [2] it was not below 1000 nM.

For the compound `COc1ccc(-c2nc(C)cc(N3CC4(CC4)c4cnc(NC(C)=O)cc43)n2)cn1` [Example 254, N-(1′-(2-(6-methoxypyridin-3-yl)-6-methylpyrimidin-4-yl)-1′,2′-dihydrospiro[cyclopropane-1,3′-pyrrolo[3,2-c]pyridin]-6′-yl)acetamide trifluoroacetate], the IC50 in experiment [1] was 100 to 1000 nM; in experiment [2], not below 1000 nM.

`CC(=O)Nc1cc2c(cn1)C1(CC1)CN2c1cc(C)cc(-c2ccn(C)n2)n1` [Example 256, N-(1′-(4-methyl-6-(1-methyl-1H-pyrazol-3-yl)pyridin-2-yl)-1′,2′-dihydrospiro[cyclopropane-1,3′-pyrrolo[3,2-c]pyridin]-6′-yl)acetamide trifluoroacetate]: the half-inhibitory concentration (IC50) in experiment [1] is 10 to 100 nM; in experiment [2] it was not below 1000 nM.

On to `CC(=O)Nc1cc2c(cn1)C1(CC1)CN2c1cc(C)cc(-c2cnn(C)c2)n1` [Example 257, N-(1′-(4-methyl-6-(1-methyl-1H-pyrazol-4-yl)pyridin-2-yl)-1′,2′-dihydrospiro[cyclopropane-1,3′-pyrrolo[3,2-c]pyridin]-6′-yl)acetamide trifluoroacetate], for which the results for the IC50 in experiment [1] and in experiment [2] were not above 10 nM and 100 to 1000 nM, respectively.

Take `CC(=O)Nc1cc2c(cn1)C1(CC1)CN2c1cc(C)cc(-c2cnn(S(C)(=O)=O)c2)n1` [Example 258, N-(1′-(4-methyl-6-(1-(methylsulfonyl)-1H-pyrazol-4-yl)pyridin-2-yl)-1′,2′-dihydrospiro[cyclopropane-1,3′-pyrrolo[3,2-c]pyridin]-6′-yl)acetamide trifluoroacetate]: the results for the IC50 in experiment [1] and in experiment [2] were 10 to 100 nM and 100 to 1000 nM, respectively.

Consider `CC(=O)Nc1cc2c(cn1)C1(CC1)CN2c1cc(C)cc(-c2cnn(C(F)F)c2)n1` [Example 259, N-(1′-(6-(1-(difluoromethyl)-1H-pyrazol-4-yl)-4-methylpyridin-2-yl)-1′,2′-dihydrospiro[cyclopropane-1,3′-pyrrolo[3,2-c]pyridin]-6′-yl)acetamide trifluoroacetate], for which the IC50 is not above 10 nM in experiment [1] and 100 to 1000 nM in experiment [2].
